Experimental findings from patent US20050209278A1, “Piperidinyl- and piperazinyl-sulfonylmethyl hydroxamic acids and their use as protease inhibitors” (priority 2002, published 2005) are described below.

Assay [1] has as its target T1, MMP-14 (Homo sapiens, UniProt P50281).
T1 construct: The catalytic domain enzyme was expressed in E. coli inclusion bodies, solubilized in urea; made in house
The assay is described as follows: In vitro MMP inhibition, IC50 determination (fluorogenic substrate I). Format: biochemical. The following applies: value in parentheses; read-out: MMP-14 (IC-50). The procedure:
Several hydroxamic acids and salts thereof were analyzed in in vitro assays to determine their ability to inhibit the MMP cleavage of peptide substrates. […] and IC50 constants were calculated from the assayed hydroxamic acid-MMP interactions. Human recombinant MMP-1, MMP-2, MMP-9, MMP-13, and MMP-14 were used in this assay. All enzymes were prepared in Assignee's laboratories following usual laboratory procedures. Protocols for the preparation and use of these enzymes are available in the scientific literature. See, e.g., Enzyme Nomenclature (Academic Press, San Diego, Calif., 1992) (and the citations therein). See also, Freije et al., “Molecular cloning and expression of collagenase-3, a novel human matrix metalloproteinase produced by breast carcinomas,” J Biol. Chem., 269(24), 16766-16773 (1994). The MMP-14 full length cDNA was provided by Dr. Gregory Goldberg of Washington University (St. Louis, Mo.). The catalytic domain enzyme was expressed in E. coli inclusion bodies, solubilized in urea, purified on a preparative […] reverse phase HPLC column, and then refolded in the presence of zinc acetate and purified for use. All MMPs were activated using 4-aminophenylmercuric acetate (“APMA”, Sigma Chemical, St. Louis, Mo.) or trypsin. MMP-9 also was activated using human recombinant MMP-3 (purified in Assignee's laboratory following standard cloning and purification techniques). […] Substrate (I) was purchased from Baychem (Redwood City, Calif.), and substrate II was prepared Assignee's laboratory. Substrate I was used in the IC50 determination assays, while substrate II was used in the Ki determination assays. In the absence of MMP inhibitory activity, either substrate is cleaved at the Gly-Leu peptide bond. […] The stock solutions of the assayed hydroxamic acids (or salts thereof) were prepared in 1% dimethyl sulfoxide (DMSO). […] The experiment controls contained the same amount of Buffer A/DMSO as the assayed sample, but contained no hydroxamic acid (or salt thereof). The assays from which the IC50 determinations were made were performed as follows. […] Louis, Mo.). The assayed hydroxamic acid samples were incubated in MicrofluorTM White Plates (Dynatech, Chantilly, Va.) and analyzed on a Perkin Elmer […] plate reader (Norwalk, Conn.). The excitation wavelength was 328 nm, and the emission wavelength-415 nm. […] As stated in the previous paragraph, samples containing varying concentrations of the same assayed hydroxamic acid were prepared. Inhibition was measured as a reduction in fluorescent intensity as a function of MMP inhibitor concentration. […] All values in Table 2 are given in nM units. The IC50 measurements are in parenthesis.

Assay [2] addresses T2, MMP-9 (Homo sapiens, UniProt P14780).
T2 construct: made in house; host or cells: MMP-9-transfected HT1080 cells (spent media)
Described as above. The following applies: value in parentheses; read-out: MMP-9 (IC-50). Format: biochemical. The procedure: Several hydroxamic acids and salts thereof were analyzed in in vitro assays to determine their ability to inhibit the MMP cleavage of peptide substrates. […] and IC50 constants were calculated from the assayed hydroxamic acid-MMP interactions. Human recombinant MMP-1, MMP-2, MMP-9, MMP-13, and MMP-14 were used in this assay. All enzymes were prepared in Assignee's laboratories following usual laboratory procedures. Protocols for the preparation and use of these enzymes are available in the scientific literature. See, e.g., Enzyme Nomenclature (Academic Press, San Diego, Calif., 1992) (and the citations therein). See also, Freije et al., “Molecular cloning and expression of collagenase-3, a novel human matrix metalloproteinase produced by breast carcinomas,” J Biol. Chem., 269(24), 16766-16773 (1994). The MMP-9 proenzyme was purified by gelatin Sepharose chromatography from spent media of MMP-9-transfected HT1080 cells provided by Dr. Howard Welgus of Washington University (St. Louis, Mo.). All MMPs were activated using 4-aminophenylmercuric acetate (“APMA”, Sigma Chemical, St. Louis, Mo.) or trypsin. MMP-9 also was activated using human recombinant MMP-3 (purified in Assignee's laboratory following standard cloning and purification techniques). […] Substrate (I) was purchased from Baychem (Redwood City, Calif.), and substrate II was prepared Assignee's laboratory. Substrate I was used in the IC50 determination assays, while substrate II was used in the Ki determination assays. In the absence of MMP inhibitory activity, either substrate is cleaved at the Gly-Leu peptide bond. […] The stock solutions of the assayed hydroxamic acids (or salts thereof) were prepared in 1% dimethyl sulfoxide (DMSO). […] The experiment controls contained the same amount of Buffer A/DMSO as the assayed sample, but contained no hydroxamic acid (or salt thereof). The assays from which the IC50 determinations were made were performed as follows. […] Louis, Mo.). The assayed hydroxamic acid samples were incubated in MicrofluorTM White Plates (Dynatech, Chantilly, Va.) and analyzed on a Perkin Elmer […] plate reader (Norwalk, Conn.). The excitation wavelength was 328 nm, and the emission wavelength-415 nm. […] As stated in the previous paragraph, samples containing varying concentrations of the same assayed hydroxamic acid were prepared. Inhibition was measured as a reduction in fluorescent intensity as a function of MMP inhibitor concentration. […] All values in Table 2 are given in nM units. The IC50 measurements are in parenthesis.

pIC50: −log10 of the molar value. “And” between values parts separate entries of the source, which are not always exact repeats. Equal values may be shown once. Where only a bound is given, the exact number is not on record here.

T2 sequence (P14780 107-707 limits assumed): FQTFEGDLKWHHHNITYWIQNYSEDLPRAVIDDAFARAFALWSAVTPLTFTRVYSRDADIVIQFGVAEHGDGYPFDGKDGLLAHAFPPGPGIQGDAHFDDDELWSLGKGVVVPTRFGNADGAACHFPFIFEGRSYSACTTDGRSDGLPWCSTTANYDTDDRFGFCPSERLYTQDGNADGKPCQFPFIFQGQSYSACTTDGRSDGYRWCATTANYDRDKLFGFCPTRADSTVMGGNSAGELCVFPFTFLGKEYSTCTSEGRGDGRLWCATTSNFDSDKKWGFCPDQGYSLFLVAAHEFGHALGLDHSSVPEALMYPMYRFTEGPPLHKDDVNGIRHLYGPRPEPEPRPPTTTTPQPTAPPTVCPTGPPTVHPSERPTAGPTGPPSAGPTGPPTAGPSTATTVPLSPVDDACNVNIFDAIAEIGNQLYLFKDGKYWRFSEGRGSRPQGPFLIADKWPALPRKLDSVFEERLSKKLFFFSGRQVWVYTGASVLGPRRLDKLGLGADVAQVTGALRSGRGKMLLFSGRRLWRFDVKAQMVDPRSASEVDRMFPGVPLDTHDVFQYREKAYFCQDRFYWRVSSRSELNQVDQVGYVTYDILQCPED

Take `COCCOc1ccc(N2CCN(S(=O)(=O)C3(C(=O)NO)CCN(C4CC4)CC3)CC2)cc1F` [Example 297]: the pIC50 in assay [1] was < 5.00 and 5.19; in assay [2], 7.51.
Turning to `C#CCN1CCC(C(=O)NO)(S(=O)(=O)N2CCN(c3ccc(OCCCC)cc3)CC2)CC1` [Example 303], the pIC50 in assay [1] was 5.65; in assay [2] it was 9.52.
For the compound `CCCCOc1ccc(N2CCN(S(=O)(=O)C3(C(=O)NO)CCN(C4CC4)CC3)CC2)cc1` [Example 301], the pIC50 in assay [1] was 5.25; in assay [2], 9.22.
Take `CCCCOc1ccc(N2CCN(S(=O)(=O)C3(C(=O)NO)CCN(CC4CC4)CC3)CC2)cc1` [Example 298]: the pIC50 was under 5.00 in assay [1] and 8.52 in assay [2].
As for `CCCCOc1ccc(N2CCN(S(=O)(=O)C3(C(=O)NO)CCN(c4ccc(C)cc4)CC3)CC2)cc1F` [Example 296], the pIC50 is under 5.00 in assay [1] and 6.94 in assay [2].
As to `CCCCOc1ccc(N2CCN(S(=O)(=O)C3(C(=O)NO)CCN(c4ccc(C)cc4)CC3)CC2)cc1` [Example 295], the pIC50 in assay [1] was under 5.00; in assay [2], 10.00.
